The subject of data set [1] is control and STZ-diabetic rats. The data set is described as follows: Acute starch tolerance test. The data set is classed as in vivo, rat. Here is the method:
Twenty-four animals were obtained at 200-250 g of body weight and randomly divided into control and diabetic groups. Diabetes was induced by a single intravenous tail vein injection of streptozotocin 60 mg/kg in 0.9% normal saline. Control rats received normal saline injections only. Animals were subsequently divided into acarbose untreated and treated. […] Starch was obtained from Fisher Scientific and a 17.5% suspension was made in distilled water. The dose of starch given was […].
The animals were fasted overnight. A basal blood sample was collected (50 μl volume) and then at 30, 60, 90 and 120 minutes post drug administration. Starch and starch+acarbose was administered by oral gavage. Blood was centrifuged at 10,000 g×25 minutes and plasma collected for determination of glucose levels using a Beckman Glucose Analyzer II™. There was no difference in body weight among the groups. There was a significant increase in plasma glucose 30 and 60 minutes following starch administration in the diabetic untreated group only.
The twenty-four animals from Example 6 were used following a wash out period of one week. Animals were divided into montbretin A untreated and treated. The four treatment groups were: control, n=6, control+montbretin A, n=6, diabetic, n=6 and diabetic+montbretin A, n=6. The procedures used in Example 6 were employed. Montbretin A was dissolved in distilled water at a concentration of 10 mg/ml and given at a volume of 1 ml/kg. The dose of montbretin A given was 10 mg/kg. There was no difference in body weight among the groups. There was a significant increase in plasma glucose levels in the diabetic untreated group at 30 and 60 minutes following starch administration.
A study was done to determine the effect of various amounts of montbretin A and montbretin extracts on plasma glucose levels in response to a starch challenge in STZ-diabetic rats. Diabetic animals used in the previous Examples were used following a wash out period of one week. The six experimental groups were: diabetic (D, n=3) diabetic+montbretin A (5 mg/kg), (DT5, n=3), diabetic+montbretin A (1 mg/kg), (DT1, n=3), diabetic+montbretin A (0.5 mg/kg), (DT0.5, n=3), diabetic+Crocosmia corm methanol extract (5 mg/kg), (DM, n=3) and diabetic+Crocosmia corm ethanol extract (5 mg/kg), (DE, n=2).
Montbretin A was dissolved in distilled water at a concentration of 5, 1 or 0.5 mg/ml and given at a volume of 1 ml/kg. The methanol extract contained montbretin A at a concentration of 3.2 mg/ml and ethanol extract at a concentration of 1.6 mg/ml. These extracts were dried and resuspended in distilled water. There was no difference in body weight among the groups. […] Diarrhea occurred in 2 out 3 animals given the methanol extract and in 1 out of 2 animals given the ethanol extract. […]

Data set [2] can be described thus: Stability in simulated gastric fluid (SGF) by UPLC. Format: in vitro ADME. The following applies: SGF pH 1.51, 37° C., 1 hour. Here is the method:
The stability of montbretin A in both simulated intestinal fluid (SIF) and simulated gastric fluid (SGF) were analyzed via ultra performance liquid chromatography (UPLC). The instrument consisted of a Waters® Acquity™ UPLC system equipped with a PDA and a TQ detector in tandem. The 2 μL sample injection volume was passed through a Waters® Acquity™ BEH C18 column (1.7 μm, 2.1×100 mm), with mobile phases A and B consisting of water with 0.1% formic acid and acetonitrile with 0.1% formic acid, respectively. The mobile phases were delivered at a programmed linear gradient at a column temperature of 35° C. Linearity was evaluated using a set of montbretin A calibration standards with concentrations ranging from 10 to 100 μg/mL in water. […]
To examine the gastrointestinal fluid activity, 0.5 mg/ml solutions of oleamide (positive control) in SGF or SIF were prepared by diluting a 100 μL aliquot of oleamide (50 mg/mL in 2-propanol) to 10 mL with either SGF or SIF and incubated in a 37° C. water bath for 1 or 3 hours, respectively. At time points of 1 or 3 hours, the sample was removed from the water bath and a 100 μL aliquot of the resulting solution was diluted to 1 mL with de-ionized water in a glass UPLC glass sample vial and analyzed by UPLC for oleamide content. […]

The test system of data set [3] is α-glucosidase (Brewers Yeast). In words: Glycosidase specificity: α-glucosidase. The data set is classed as biochemical. The following applies: at 0.1 μM Montbretin A.
For data set [4], the target named is β-galactosidase (E. coli) (Escherichia coli, UniProt P00722). The data set is described as follows: Glycosidase specificity: β-galactosidase. Format: biochemical. The following applies: at 0.1 μM Montbretin A; read-out: RA (%), Residual Enzyme Activity.
Data set [5] has as its target α-galactosidase (Green Coffee Beans) (Coffea arabica, UniProt Q42656). In words: Glycosidase specificity: α-galactosidase. The data set is classed as biochemical. The conditions noted are these: at 0.1 μM Montbretin A; read-out: RA (%), Residual Enzyme Activity.

The values that follow come from US8431541B2, “Alpha-amylase inhibitors: the montbretins and uses thereof” (The University of British Columbia, priority 2007, dated 2013).

Each structure is given as a SMILES string.

β-galactosidase (E. coli), sequence (P00722 2-1024 limits assumed): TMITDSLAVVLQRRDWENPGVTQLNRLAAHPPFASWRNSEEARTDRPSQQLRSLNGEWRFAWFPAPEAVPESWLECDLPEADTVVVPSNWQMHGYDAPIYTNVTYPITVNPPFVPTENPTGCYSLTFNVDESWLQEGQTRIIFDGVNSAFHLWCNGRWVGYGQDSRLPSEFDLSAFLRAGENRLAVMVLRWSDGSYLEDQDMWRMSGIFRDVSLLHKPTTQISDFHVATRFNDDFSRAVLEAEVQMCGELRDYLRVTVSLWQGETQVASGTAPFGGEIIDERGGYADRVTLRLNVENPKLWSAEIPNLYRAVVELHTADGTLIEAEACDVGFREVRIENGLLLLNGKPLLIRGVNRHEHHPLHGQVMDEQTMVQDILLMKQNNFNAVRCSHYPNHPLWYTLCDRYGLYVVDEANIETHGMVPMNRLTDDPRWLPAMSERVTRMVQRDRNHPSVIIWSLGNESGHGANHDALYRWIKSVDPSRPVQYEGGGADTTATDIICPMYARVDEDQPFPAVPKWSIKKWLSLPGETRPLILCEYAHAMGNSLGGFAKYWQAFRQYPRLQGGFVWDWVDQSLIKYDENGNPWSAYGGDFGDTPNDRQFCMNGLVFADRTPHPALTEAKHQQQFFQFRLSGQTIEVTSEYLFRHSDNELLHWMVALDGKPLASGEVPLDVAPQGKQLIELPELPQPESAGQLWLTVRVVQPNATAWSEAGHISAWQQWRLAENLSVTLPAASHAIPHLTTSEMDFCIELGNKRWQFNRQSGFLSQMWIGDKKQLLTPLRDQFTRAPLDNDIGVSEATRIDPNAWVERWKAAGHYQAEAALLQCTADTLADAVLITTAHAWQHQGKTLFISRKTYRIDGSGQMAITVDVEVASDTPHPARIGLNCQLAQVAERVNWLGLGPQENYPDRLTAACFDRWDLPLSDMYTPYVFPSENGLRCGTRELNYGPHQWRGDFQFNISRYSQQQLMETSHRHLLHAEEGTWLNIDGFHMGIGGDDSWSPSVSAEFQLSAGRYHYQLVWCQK
α-galactosidase (Green Coffee Beans), sequence (Q42656 16-378): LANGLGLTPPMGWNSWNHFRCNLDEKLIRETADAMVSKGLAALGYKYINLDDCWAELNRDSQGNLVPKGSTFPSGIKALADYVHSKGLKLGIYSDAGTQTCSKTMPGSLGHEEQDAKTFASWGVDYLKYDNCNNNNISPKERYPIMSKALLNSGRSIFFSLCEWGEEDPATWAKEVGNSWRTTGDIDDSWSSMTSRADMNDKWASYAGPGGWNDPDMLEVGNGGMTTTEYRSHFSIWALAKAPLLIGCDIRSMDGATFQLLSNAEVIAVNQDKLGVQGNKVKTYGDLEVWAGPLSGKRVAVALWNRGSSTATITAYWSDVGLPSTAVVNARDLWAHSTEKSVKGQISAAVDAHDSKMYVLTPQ

Consider `CC1O[C@@H](O[C@@H]2CO[C@@H](Oc3c(O)cc(-c4oc5cc(O)cc(O)c5c(=O)c4O[C@@H]4OC(C)[C@H](O)[C@H](O)C4O[C@@H]4OC(COC(=O)/C=C/c5ccc(O)c(O)c5)[C@@H](O)[C@@H](O)C4O[C@@H]4OC(CO)[C@@H](O)[C@@H](O)C4O)cc3O)C(O)[C@@H]2O)C(O)[C@@H](O)[C@H]1O` (stereo partly shown) [Montbretin A, montbretin A], for which, in data set [1] (5 mg/kg, acute, STZ-diabetic rats), the “increase in plasma glucose following starch administration” value is given as “prevented the increase in plasma glucose”. Also, the “increase in plasma glucose following a starch challenge” value in data set [1] (10 mg/kg, oral gavage, acute, control and STZ-diabetic rats) is “effective in preventing the increase in plasma glucose”. In addition, in data set [1] (lower doses (1 mg/kg, 0.5 mg/kg), STZ-diabetic rats), the “effect on plasma glucose, area under the curve” value is listed as “not particularly significant”. Further, the “degradation or loss in SGF” value in data set [2] is on record as roughly 10%. Further, in data set [3], the “RA (%), Residual Enzyme Activity” value came out at 97%. For the same molecule, the remaining activity at 0.1 µM in data set [4] was 98%; in data set [5], 100%.
